Experiments:
Assay type in all cases: cell-based
RS4;11-BCL-2 D103E cells = test: Cell proliferation assay (MTS), RS4;11-BCL-2 D103E engineered cells; details: Homo sapiens, 72 h, read-out: RS4, 11 BCL2-D103E IC50
Description: MTS testing kit was purchased from Promega (Madison, WI, USA). The RPMI-1640, Fetal bovine serum and Penicillin-Streptomycin were purchased from BI (Biological Industries, Beit Haemek, Israel). Puromycin was purchased from Beyotime (shanghai, China). Dimethyl sulfoxide (DMSO) was purchased from Sigma (St. Louis., MO, USA). RS4;11-BCL-2 G101V (Cobioer Lot. #: CBD2021063013P4), RS4;11-BCL-2 D103E (Cobioer Lot. #: CBD2021063013P4), RS4;11-BCL-2 D103Y (Cobioer Lot. #: CBD2022012101P4) and RS4;11-BCL-2 F104L (Cobioer Lot. #: CBD2021063014P4) cells were cultured in RPMI1640 supplemented with 1 ug/mL puromycin, 100 U/mL Penicillin-Streptomycin and 10% FBS.
To investigate whether a compound is able to inhibit the activity of BCL-2 mutation in cells, a mechanism-based assay using engineered cell lines stably overexpressing BCL-2 mutation (RS4;11-BCL-2 G101V, RS4;11-BCL-2 D103E, RS4;11-BCL-2 D103Y, and RS4;11-BCL-2 F104L) was developed. In this assay, the inhibition of BCL-2 mutation was reflected by the inhibition of cell proliferation of engineered RS4;11 cells. Cells were plated into 96-well plates at optimized cell density (RS4;11-BCL-2 G101V: 5000 cells/well; RS4;11-BCL-2 D103E: 7500 cells/well; RS4;11-BCL-2 D103Y: 7500 cells/well; RS4;11-BCL-2 F104L: 5000 cells/well). Plates were incubated at 37° C., with 5% CO2 for 4 h (RS4;11-BCL-2 G101V, RS4;11-BCL-2 F104L) and 24 h (RS4;11-BCL-2 D103E, RS4;11-BCL-2 D103Y), respectively. Compounds were serially diluted and added to the plates with the final concentrations of 10000, 3333.3, 1111.1, 370.4, 123.5, 41.2, 13.7, 4.6 and 1.5 nM. Plates were incubated at 37° C., with 5% CO2 for 120 h (RS4; 11-BCL-2 G101V, RS4; 11-BCL-2 F104L) and 72 h (RS4;11-BCL-2 D103E, RS4;11-BCL-2 D103Y), respectively. 20 μl MTS was added into each well and the plates were incubated at 37° C., with 5% CO2 exactly for 2 h. The absorbance was measured by a microplate reader at 490 nm. IC50 values were calculated using GraphPad Prism 8.0 software.

Toledo cells = test: Cell proliferation assay (MTS), Toledo cells; details: Homo sapiens, 72 h
In short: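 Toledo cells (RPMI-1640, 10% FBS) seeded at 30000 cells/well, rested 4 h, then exposed 72 h at 37 °C, 5% CO2 to compound at nine final concentrations, 1.5–10000 nM. Viability by MTS (2 h), absorbance at 490 nm. IC50 from the concentration-response.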

RS4;11-BCL-2 G101V cells = test: Cell proliferation assay (MTS), RS4;11-BCL-2 G101V engineered cells; details: Homo sapiens, 120 h, read-out: RS4, 11 BCL2-G101V IC50
In short: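 Inhibition of mutant BCL-2 is inferred from reduced proliferation of RS4;11 cells stably overexpressing the mutant. Compounds are tested at 1.5–10000 nM for 120 h (G101V, F104L) or 72 h (D103E, D103Y), with MTS absorbance at 490 nm used to derive IC50.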

Compound | IC50 (RS4;11-BCL-2 D103E cells) [nM] | IC50 (Toledo cells) [nM] | IC50 (RS4;11-BCL-2 G101V cells) [nM]
CCOc1nc2[nH]cc(F)c2cc1Oc1cc(N2CCC3(CC2)CC(N2CCN(Cc4ccc(OC)c(OC)c4)C[C@H]2c2ccccc2C(C)C)C3)ccc1C(=O)NS(=O)(=O)c1cnc(NC[C@H]2CC[C@](C)(O)CC2)c([N+](=O)[O-])c1 [Example 8, 4-(2-((R)-4-(3,4-dimethoxybenzyl)-2-(2-isopropylphenyl)piperazin-1-yl)-7-azaspiro[3.5]nonan-7-yl)-2-((6-ethoxy-3-fluoro-1H-pyrrolo[2,3-b]pyridin-5-yl)oxy)-N-((6-((((1r,4r)-4-hydroxy-4-methylcyclohexyl)methyl)amino)-5-nitropyridin-3-yl)sulfonyl)benzamide] | 3 | 1 | 1
COCCN1CCN(C2CC3(CCN(c4ccc(C(=O)NS(=O)(=O)c5cnc(NC[C@H]6CC[C@](C)(O)CC6)c([N+](=O)[O-])c5)c(Oc5cc6c(F)c[nH]c6nc5OC)c4)CC3)C2)[C@H](c2ccccc2C(C)C)C1 [Example 129, 2-((3-fluoro-6-methoxy-1H-pyrrolo[2,3-b]pyridin-5-yl)oxy)-N-((6-((((1r,4r)-4-hydroxy-4-methylcyclohexyl)methyl)amino)-5-nitropyridin-3-yl)sulfonyl)-4-(2-((R)-2-(2-isopropylphenyl)-4-(2-methoxyethyl)piperazin-1-yl)-7-azaspiro[3.5]nonan-7-yl)benzamide] | 3 | 1 | –
COc1nc2[nH]cc(F)c2cc1Oc1cc(N2CCC3(CC2)CC(N2CCN(C[C@H]4COCCO4)C[C@H]2c2ccccc2C(C)C)C3)ccc1C(=O)NS(=O)(=O)c1cnc(NC[C@H]2CC[C@](C)(O)CC2)c([N+](=O)[O-])c1 [Example 328, 4-(2-((R)-4-(((S)-1,4-dioxan-2-yl)methyl)-2-(2-isopropylphenyl)piperazin-1-yl)-7-azaspiro[3.5]nonan-7-yl)-2-((3-fluoro-6-methoxy-1H-pyrrolo[2,3-b]pyridin-5-yl)oxy)-N-((6-((((1r,4r)-4-hydroxy-4-methylcyclohexyl)methyl)amino)-5-nitropyridin-3-yl)sulfonyl)benzamide] | 1 | – | 1
CC(C)c1ccccc1[C@@H]1CN(Cc2ccc(S(C)(=O)=O)cc2)CCN1C1CC2(CCN(c3ccc(C(=O)NS(=O)(=O)c4cnc(NC[C@H]5CC[C@](C)(O)CC5)c([N+](=O)[O-])c4)c(Oc4cnc5[nH]cc(F)c5c4)c3)CC2)C1 [Example 329, 2-((3-fluoro-1H-pyrrolo[2,3-b]pyridin-5-yl)oxy)-N-((6-((((1r,4r)-4-hydroxy-4-methylcyclohexyl)methyl)amino)-5-nitropyridin-3-yl)sulfonyl)-4-(2-((R)-2-(2-isopropylphenyl)-4-(4-(methylsulfonyl)benzyl)piperazin-1-yl)-7-azaspiro[3.5]nonan-7-yl)benzamide] | 1 | 1 | –
CC(C)c1ccccc1[C@@H]1CN(C[C@H]2COCCO2)CCN1C1CC2(CCN(c3ccc(C(=O)NS(=O)(=O)c4cnc(NC[C@H]5CC[C@](C)(O)CC5)c([N+](=O)[O-])c4)c(Oc4cnc5[nH]cc(F)c5c4)c3)CC2)C1 [Example 330, 4-(2-((R)-4-(((S)-1,4-dioxan-2-yl)methyl)-2-(2-isopropylphenyl)piperazin-1-yl)-7-azaspiro [3.5]nonan-7-yl)-2-((3-fluoro-1H-pyrrolo[2,3-b]pyridin-5-yl)oxy)-N-((6-((((1r,4r)-4-hydroxy-4-methylcyclohexyl)methyl)amino)-5-nitropyridin-3-yl)sulfonyl)benzamide] | 1 | – | 1
